The text below walks through data of patent US12049450B2, “Pyridyloxy-carboxylate derivative and preparation method therefor, herbicidal composition, and use” (Qingdao Kingagroot Chemical Compound Co., Ltd., priority 2018, dated 2024).

Molecules are shown by their SMILES.

Holding throughout (test): Post-emergence test experiment (greenhouse pot, spray at 2-3 leaf stage)
Holding throughout (type): in vivo
What all share (conditions): 1000 g/ha; post-emergence spray at 2-3 leaf stage; assessed after 3 weeks; fresh weight inhibition rate

Assay [1] deals with Echinochloa crusgalli. The procedure, abridged:
(§1)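 Activity graded levels 0-5 by fresh-weight inhibition (level 5 above 85%, level 0 below 5%), assessed 3 weeks after treatment. Plants grown in greenhouse pots were sprayed post-emergence at 2-3 leaves using acetone/tween-80 solutions with methyl oleate synergist (1.5 L/ha).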

Assay [2] relates to Digitaria sanguinalis. The procedure, abridged:
as §1

For assay [3], the system named is Galium spurium. Summed up:
as §1

The subject of assay [4] is Monochoria vaginalis. Summed up: as §1
Assay [5] deals with Abutilon theophrasti. The procedure, abridged: as §1

In the case of `CC(Oc1nc(F)c(Cl)c(N)c1Cl)C(=O)SCc1ccc2ncoc2c1` (stereo not drawn) [Compound 174], in assay [1], the “Activity level (growth inhibition rate) Echinochloa crusgalli” value was 5 (Level 5: the growth inhibition rate is greater than 85%). For the same molecule, in assay [2], the “Activity level (growth inhibition rate) Digitaria sanguinalis” value is 5 (Level 5: the growth inhibition rate is greater than 85%). The “Activity level (growth inhibition rate) Galium spurium” value in assay [3] is listed as 5 (Level 5: the growth inhibition rate is greater than 85%). Moreover, the “Activity level (growth inhibition rate) Monochoria Vaginalis” value in assay [4] is recorded as 5 (Level 5: the growth inhibition rate is greater than 85%). In addition, in assay [5], the “Activity level (growth inhibition rate) Abutilon theophrasti” value is 5 (Level 5: the growth inhibition rate is greater than 85%).

In the case of `CC(Oc1nc(F)c(Cl)c(N)c1Cl)C(=O)SCCc1cocn1` (stereo not drawn) [Compound 142], the “Activity level (growth inhibition rate) Echinochloa crusgalli” value in assay [1] is given as 5 (Level 5: the growth inhibition rate is greater than 85%). Also, the “Activity level (growth inhibition rate) Digitaria sanguinalis” value in assay [2] is 5 (Level 5: the growth inhibition rate is greater than 85%). Besides, the “Activity level (growth inhibition rate) Galium spurium” value in assay [3] was 5 (Level 5: the growth inhibition rate is greater than 85%). Also, in assay [4], the “Activity level (growth inhibition rate) Monochoria Vaginalis” value is given as 5 (Level 5: the growth inhibition rate is greater than 85%). In addition, the “Activity level (growth inhibition rate) Abutilon theophrasti” value in assay [5] is 5 (Level 5: the growth inhibition rate is greater than 85%).

Consider `CC(Oc1nc(C(F)(F)F)c(Cl)c(N)c1Cl)C(=O)SCc1ccccc1` (stereo not drawn) [Compound 6], for which the “Activity level (growth inhibition rate) Echinochloa crusgalli” value in assay [1] is 5 (Level 5: the growth inhibition rate is greater than 85%). In assay [2], the “Activity level (growth inhibition rate) Digitaria sanguinalis” value was 5 (Level 5: the growth inhibition rate is greater than 85%). Also, in assay [3], the “Activity level (growth inhibition rate) Galium spurium” value is listed as 5 (Level 5: the growth inhibition rate is greater than 85%). For the same molecule, in assay [4], the “Activity level (growth inhibition rate) Monochoria Vaginalis” value is given as 5 (Level 5: the growth inhibition rate is greater than 85%). Further, the “Activity level (growth inhibition rate) Abutilon theophrasti” value in assay [5] is recorded as 5 (Level 5: the growth inhibition rate is greater than 85%).

Consider `CC(Oc1nc(F)c(Cl)c(N)c1Cl)C(=O)OCc1ccc(C#N)cc1` (stereo not drawn) [Compound 91], for which the “Activity level (growth inhibition rate) Echinochloa crusgalli” value in assay [1] was 5 (Level 5: the growth inhibition rate is greater than 85%). For the same molecule, the “Activity level (growth inhibition rate) Digitaria sanguinalis” value in assay [2] is listed as 5 (Level 5: the growth inhibition rate is greater than 85%). Also, the “Activity level (growth inhibition rate) Galium spurium” value in assay [3] was 5 (Level 5: the growth inhibition rate is greater than 85%). Further, the “Activity level (growth inhibition rate) Monochoria Vaginalis” value in assay [4] is 5 (Level 5: the growth inhibition rate is greater than 85%). Besides, the “Activity level (growth inhibition rate) Abutilon theophrasti” value in assay [5] is on record as 5 (Level 5: the growth inhibition rate is greater than 85%).

Consider `CNc1c(Cl)c(F)nc(OC(C)C(=O)OCc2ccccc2)c1Cl` (stereo not drawn) [Compound 190], for which, in assay [1], the “Activity level (growth inhibition rate) Echinochloa crusgalli” value is 5 (Level 5: the growth inhibition rate is greater than 85%). Further, the “Activity level (growth inhibition rate) Digitaria sanguinalis” value in assay [2] was 5 (Level 5: the growth inhibition rate is greater than 85%). In addition, the “Activity level (growth inhibition rate) Galium spurium” value in assay [3] was 5 (Level 5: the growth inhibition rate is greater than 85%). The “Activity level (growth inhibition rate) Monochoria Vaginalis” value in assay [4] was 5 (Level 5: the growth inhibition rate is greater than 85%). Further, the “Activity level (growth inhibition rate) Abutilon theophrasti” value in assay [5] is given as 5 (Level 5: the growth inhibition rate is greater than 85%).

For `CC(Oc1nc(F)c(Cl)c(N)c1Cl)C(=O)OCc1ccnn1C` (stereo not drawn) [Compound 216], the “Activity level (growth inhibition rate) Echinochloa crusgalli” value in assay [1] was 5 (Level 5: the growth inhibition rate is greater than 85%). For the same molecule, the “Activity level (growth inhibition rate) Digitaria sanguinalis” value in assay [2] was 5 (Level 5: the growth inhibition rate is greater than 85%). The “Activity level (growth inhibition rate) Galium spurium” value in assay [3] is 5 (Level 5: the growth inhibition rate is greater than 85%). In assay [4], the “Activity level (growth inhibition rate) Monochoria Vaginalis” value was 5 (Level 5: the growth inhibition rate is greater than 85%). In addition, the “Activity level (growth inhibition rate) Abutilon theophrasti” value in assay [5] is given as 5 (Level 5: the growth inhibition rate is greater than 85%).

In the case of `CC(Oc1nc(F)c(Cl)c(N)c1Cl)C(=O)OCc1cccc(Oc2ccccc2)c1` (racemic) [Compound 114], the “Activity level (growth inhibition rate) Echinochloa crusgalli” value in assay [1] is reported as 5 (Level 5: the growth inhibition rate is greater than 85%). Moreover, the “Activity level (growth inhibition rate) Digitaria sanguinalis” value in assay [2] is 5 (Level 5: the growth inhibition rate is greater than 85%). Moreover, in assay [3], the “Activity level (growth inhibition rate) Galium spurium” value is given as 5 (Level 5: the growth inhibition rate is greater than 85%). Also, in assay [4], the “Activity level (growth inhibition rate) Monochoria Vaginalis” value is given as 5 (Level 5: the growth inhibition rate is greater than 85%). Also, the “Activity level (growth inhibition rate) Abutilon theophrasti” value in assay [5] was 5 (Level 5: the growth inhibition rate is greater than 85%).

As for `CC(Oc1nc(F)c(Cl)c(N)c1Cl)C(=O)OCc1cccc(OCC(F)(F)F)c1` (stereo not drawn) [Compound 96], in assay [1], the “Activity level (growth inhibition rate) Echinochloa crusgalli” value was 5 (Level 5: the growth inhibition rate is greater than 85%). Further, in assay [2], the “Activity level (growth inhibition rate) Digitaria sanguinalis” value is reported as 5 (Level 5: the growth inhibition rate is greater than 85%). Besides, in assay [3], the “Activity level (growth inhibition rate) Galium spurium” value is 5 (Level 5: the growth inhibition rate is greater than 85%). Also, the “Activity level (growth inhibition rate) Monochoria Vaginalis” value in assay [4] is recorded as 5 (Level 5: the growth inhibition rate is greater than 85%). The “Activity level (growth inhibition rate) Abutilon theophrasti” value in assay [5] is recorded as 5 (Level 5: the growth inhibition rate is greater than 85%).

As for `Cc1ccc(CSC(=O)C(C)Oc2nc(F)c(Cl)c(N)c2Cl)cc1` (stereo not drawn) [Compound 220], in assay [1], the “Activity level (growth inhibition rate) Echinochloa crusgalli” value is listed as 5 (Level 5: the growth inhibition rate is greater than 85%). The “Activity level (growth inhibition rate) Digitaria sanguinalis” value in assay [2] is on record as 5 (Level 5: the growth inhibition rate is greater than 85%). In assay [3], the “Activity level (growth inhibition rate) Galium spurium” value was 5 (Level 5: the growth inhibition rate is greater than 85%). The “Activity level (growth inhibition rate) Monochoria Vaginalis” value in assay [4] is listed as 5 (Level 5: the growth inhibition rate is greater than 85%). Also, in assay [5], the “Activity level (growth inhibition rate) Abutilon theophrasti” value was 5 (Level 5: the growth inhibition rate is greater than 85%).

`CC(Oc1nc(Cl)c(C2CC2)c(N)c1Cl)C(=O)OCc1ccccc1` (stereo not drawn) [Compound 10]: in assay [1], the “Activity level (growth inhibition rate) Echinochloa crusgalli” value was 5 (Level 5: the growth inhibition rate is greater than 85%). The “Activity level (growth inhibition rate) Digitaria sanguinalis” value in assay [2] was 5 (Level 5: the growth inhibition rate is greater than 85%). In addition, the “Activity level (growth inhibition rate) Galium spurium” value in assay [3] is on record as 5 (Level 5: the growth inhibition rate is greater than 85%). The “Activity level (growth inhibition rate) Monochoria Vaginalis” value in assay [4] is 5 (Level 5: the growth inhibition rate is greater than 85%). In addition, the “Activity level (growth inhibition rate) Abutilon theophrasti” value in assay [5] is 5 (Level 5: the growth inhibition rate is greater than 85%).

Regarding `CC(Oc1nc(F)c(Cl)c(N)c1Cl)C(=O)SCc1cccnc1` (stereo not drawn) [Compound 237], the “Activity level (growth inhibition rate) Echinochloa crusgalli” value in assay [1] is given as 5 (Level 5: the growth inhibition rate is greater than 85%). Moreover, in assay [2], the “Activity level (growth inhibition rate) Digitaria sanguinalis” value was 5 (Level 5: the growth inhibition rate is greater than 85%). The “Activity level (growth inhibition rate) Galium spurium” value in assay [3] is 5 (Level 5: the growth inhibition rate is greater than 85%). Besides, the “Activity level (growth inhibition rate) Monochoria Vaginalis” value in assay [4] is on record as 5 (Level 5: the growth inhibition rate is greater than 85%). The “Activity level (growth inhibition rate) Abutilon theophrasti” value in assay [5] is recorded as 5 (Level 5: the growth inhibition rate is greater than 85%).

For `Cc1ccc(COC(=O)C(C)Oc2nc(F)c(Cl)c(N)c2Cl)cc1` (stereo not drawn) [Compound 197], the “Activity level (growth inhibition rate) Echinochloa crusgalli” value in assay [1] was 5 (Level 5: the growth inhibition rate is greater than 85%). For the same molecule, in assay [2], the “Activity level (growth inhibition rate) Digitaria sanguinalis” value is reported as 5 (Level 5: the growth inhibition rate is greater than 85%). For the same molecule, in assay [3], the “Activity level (growth inhibition rate) Galium spurium” value is recorded as 5 (Level 5: the growth inhibition rate is greater than 85%). The “Activity level (growth inhibition rate) Monochoria Vaginalis” value in assay [4] is reported as 5 (Level 5: the growth inhibition rate is greater than 85%). Besides, the “Activity level (growth inhibition rate) Abutilon theophrasti” value in assay [5] is recorded as 5 (Level 5: the growth inhibition rate is greater than 85%).

Regarding `CC(Oc1nc(F)c(Cl)c(N)c1Cl)C(=O)SCc1ccccc1C#N` (stereo not drawn) [Compound 224], in assay [1], the “Activity level (growth inhibition rate) Echinochloa crusgalli” value is 5 (Level 5: the growth inhibition rate is greater than 85%). The “Activity level (growth inhibition rate) Digitaria sanguinalis” value in assay [2] is reported as 5 (Level 5: the growth inhibition rate is greater than 85%). The “Activity level (growth inhibition rate) Galium spurium” value in assay [3] is given as 5 (Level 5: the growth inhibition rate is greater than 85%). The “Activity level (growth inhibition rate) Monochoria Vaginalis” value in assay [4] is listed as 5 (Level 5: the growth inhibition rate is greater than 85%). Further, in assay [5], the “Activity level (growth inhibition rate) Abutilon theophrasti” value was 5 (Level 5: the growth inhibition rate is greater than 85%).

For the molecule `CC(Oc1nc(F)c(Cl)c(N)c1Cl)C(=O)OCc1nncs1` (stereo not drawn) [Compound 164], the “Activity level (growth inhibition rate) Echinochloa crusgalli” value in assay [1] is recorded as 5 (Level 5: the growth inhibition rate is greater than 85%). Further, the “Activity level (growth inhibition rate) Digitaria sanguinalis” value in assay [2] was 5 (Level 5: the growth inhibition rate is greater than 85%). Besides, the “Activity level (growth inhibition rate) Galium spurium” value in assay [3] is 5 (Level 5: the growth inhibition rate is greater than 85%). In assay [4], the “Activity level (growth inhibition rate) Monochoria Vaginalis” value is given as 5 (Level 5: the growth inhibition rate is greater than 85%). Also, the “Activity level (growth inhibition rate) Abutilon theophrasti” value in assay [5] was 5 (Level 5: the growth inhibition rate is greater than 85%).

As to `CC(Oc1nc(F)c(Cl)c(N)c1Cl)C(=O)OCc1ccccc1Br` (stereo not drawn) [Compound 205], in assay [1], the “Activity level (growth inhibition rate) Echinochloa crusgalli” value was 5 (Level 5: the growth inhibition rate is greater than 85%). Also, the “Activity level (growth inhibition rate) Digitaria sanguinalis” value in assay [2] is recorded as 5 (Level 5: the growth inhibition rate is greater than 85%). Also, the “Activity level (growth inhibition rate) Galium spurium” value in assay [3] was 5 (Level 5: the growth inhibition rate is greater than 85%). Further, in assay [4], the “Activity level (growth inhibition rate) Monochoria Vaginalis” value is 5 (Level 5: the growth inhibition rate is greater than 85%). The “Activity level (growth inhibition rate) Abutilon theophrasti” value in assay [5] is 5 (Level 5: the growth inhibition rate is greater than 85%).
